Experimental data from patent US20230085307A1, “PYRIDAZINONE COMPOUND AND HERBICIDE” (NISSAN CHEMICAL CORPORATION, priority 2019, published 2023).

Tests used:
rice flat sedge = assay: Test Example 3: herbicidal effect by foliage application, Wagner pot (Table 18, symbol E); type: in vivo, rice flat sedge (Cyperus iria); conditions: amount of applied herbicide 320 g/ha
Summary of the method: (§1)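 Plants were sown in alluvial soil held under 0.1–0.5 cm standing water and grown 14 days in a greenhouse at 25–30 °C. An emulsifiable formulation, water-diluted to the set dose, was then sprayed onto the foliage, and effects were scored three weeks later using previously defined criteria.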

chickweed [1] = assay: Test Example 5: herbicidal effect by foliage application, plastic box (Table 20, symbol P); type: in vivo, common chickweed (Stellaria media); conditions: foliage application, 320 g/ha, three weeks after application
Summary of the method: (§2)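 Plants were sown into sterilized diluvial soil under about 1.5 cm cover and kept in a greenhouse at 25° C. to 30° C. Fourteen days on, foliage received an even spray of the diluted emulsion. Herbicidal or crop effect was judged three weeks afterwards.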

blackgrass [2] = assay: Test Example 5: herbicidal effect by foliage application, plastic box (Table 20, symbol J); type: in vivo, blackgrass (Alopecurus myosuroides); conditions: foliage application, 320 g/ha, three weeks after application
Summary of the method: as §2

green foxtail [3] = assay: Test Example 5: herbicidal effect by foliage application, plastic box (Table 20, symbol G); type: in vivo, green foxtail (Setaria viridis); conditions: foliage application, 320 g/ha, three weeks after application
Summary of the method: as §2

oval-leafed pondweed = assay: Test Example 1: herbicidal activity, application before weed generation under submerged conditions (Table 16, symbol C); type: in vivo, oval-leafed pondweed (Monochoria vaginalis); conditions: amount of applied herbicide 320 g/ha
Summary of the method: (§3)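 Emulsion formulation, water-diluted to set dose, was put onto the flooded surface (4 cm depth, alluvial soil) the same day weeds were sown and 2.5-leaf rice transplanted. After 3 weeks at 25-30 °C under glass, each species was rated 0 (≤5% kill) to 5 (≥90% kill).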

lambsquarters [4] = assay: Test Example 5: herbicidal effect by foliage application, plastic box (Table 20, symbol O); type: in vivo, lambsquarters (Chenopodium album); conditions: foliage application, 320 g/ha, three weeks after application
Summary of the method: as §2

barnyard grass [5] = assay: Test Example 4: herbicidal effect by soil treatment (Table 19, symbol H); type: in vivo, barnyard grass (Echinochloa crus-galli); conditions: amount of applied herbicide 320 g/ha
Summary of the method: (§4)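 In this soil treatment, the formulated compound reached the seeds only through the soil: seeds were buried about 1.5 cm deep in sterilized diluvial soil, then the diluted emulsion was sprayed over the surface. After three weeks at 25° C. to 30° C. in a greenhouse, effects were graded on criteria from an earlier test.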

southern crabgrass [6] = assay: Test Example 4: herbicidal effect by soil treatment (Table 19, symbol F); type: in vivo, southern crabgrass (Digitaria ciliaris); conditions: amount of applied herbicide 320 g/ha
Summary of the method: as §4

lambsquarters [7] = assay: Test Example 4: herbicidal effect by soil treatment (Table 19, symbol O); type: in vivo, lambsquarters (Chenopodium album); conditions: amount of applied herbicide 320 g/ha
Summary of the method: as §4

velvetleaf [8] = assay: Test Example 4: herbicidal effect by soil treatment (Table 19, symbol M); type: in vivo, velvetleaf (Abutilon theophrasti); conditions: amount of applied herbicide 320 g/ha
Summary of the method: as §4

Japanese bulrush = assay: Test Example 1: herbicidal activity, application before weed generation under submerged conditions (Table 16, symbol B); type: in vivo, Japanese bulrush (Schoenoplectus juncoides); conditions: amount of applied herbicide 320 g/ha
Summary of the method: as §3

late watergrass = assay: Test Example 1: herbicidal activity, application before weed generation under submerged conditions (Table 16, symbol A); type: in vivo, late watergrass (Echinochloa oryzicola); conditions: amount of applied herbicide 320 g/ha
Summary of the method: as §3

windgrass [9] = assay: Test Example 5: herbicidal effect by foliage application, plastic box (Table 20, symbol L); type: in vivo, windgrass (Apera spica-venti); conditions: foliage application, 320 g/ha, three weeks after application
Summary of the method: as §2

persian speedwell [10] = assay: Test Example 5: herbicidal effect by foliage application, plastic box (Table 20, symbol R); type: in vivo, Persian speedwell (Veronica persica); conditions: foliage application, 320 g/ha, three weeks after application
Summary of the method: as §2

blackgrass [11] = assay: Test Example 4: herbicidal effect by soil treatment (Table 19, symbol J); type: in vivo, blackgrass (Alopecurus myosuroides); conditions: amount of applied herbicide 320 g/ha
Summary of the method: as §4

velvetleaf [12] = assay: Test Example 5: herbicidal effect by foliage application, plastic box (Table 20, symbol M); type: in vivo, velvetleaf (Abutilon theophrasti); conditions: foliage application, 320 g/ha, three weeks after application
Summary of the method: as §2

Chinese sprangletop = assay: Test Example 3: herbicidal effect by foliage application, Wagner pot (Table 18, symbol D); type: in vivo, chinese sprangletop (Leptochloa chinensis); conditions: amount of applied herbicide 320 g/ha
Summary of the method: as §1

barnyard grass [13] = assay: Test Example 3: herbicidal effect by foliage application, Wagner pot (Table 18, symbol H); type: in vivo, barnyard grass (Echinochloa crus-galli); conditions: amount of applied herbicide 320 g/ha
Summary of the method: as §1

redroot pigweed [14] = assay: Test Example 5: herbicidal effect by foliage application, plastic box (Table 20, symbol N); type: in vivo, redroot pigweed (Amaranthus retroflexus); conditions: foliage application, 320 g/ha, three weeks after application
Summary of the method: as §2

persian speedwell [15] = assay: Test Example 4: herbicidal effect by soil treatment (Table 19, symbol R); type: in vivo, Persian speedwell (Veronica persica); conditions: amount of applied herbicide 320 g/ha
Summary of the method: as §4

southern crabgrass [16] = assay: Test Example 5: herbicidal effect by foliage application, plastic box (Table 20, symbol F); type: in vivo, southern crabgrass (Digitaria ciliaris); conditions: foliage application, 320 g/ha, three weeks after application
Summary of the method: as §2

green foxtail [17] = assay: Test Example 4: herbicidal effect by soil treatment (Table 19, symbol G); type: in vivo, green foxtail (Setaria viridis); conditions: amount of applied herbicide 320 g/ha
Summary of the method: as §4

redroot pigweed [18] = assay: Test Example 4: herbicidal effect by soil treatment (Table 19, symbol N); type: in vivo, redroot pigweed (Amaranthus retroflexus); conditions: amount of applied herbicide 320 g/ha
Summary of the method: as §4

Italian ryegrass [19] = assay: Test Example 4: herbicidal effect by soil treatment (Table 19, symbol K); type: in vivo, Italian ryegrass (Lolium multiflorum); conditions: amount of applied herbicide 320 g/ha
Summary of the method: as §4

wild oat [20] = assay: Test Example 5: herbicidal effect by foliage application, plastic box (Table 20, symbol I); type: in vivo, wild oat (Avena fatua); conditions: foliage application, 320 g/ha, three weeks after application
Summary of the method: as §2

wild oat [21] = assay: Test Example 4: herbicidal effect by soil treatment (Table 19, symbol I); type: in vivo, wild oat (Avena fatua); conditions: amount of applied herbicide 320 g/ha
Summary of the method: as §4

barnyard grass [22] = assay: Test Example 5: herbicidal effect by foliage application, plastic box (Table 20, symbol H); type: in vivo, barnyard grass (Echinochloa crus-galli); conditions: foliage application, 320 g/ha, three weeks after application
Summary of the method: as §2

false cleavers = assay: Test Example 4: herbicidal effect by soil treatment (Table 19, symbol Q); type: in vivo, false cleavers (Galium spurium); conditions: amount of applied herbicide 320 g/ha
Summary of the method: as §4

windgrass [23] = assay: Test Example 4: herbicidal effect by soil treatment (Table 19, symbol L); type: in vivo, windgrass (Apera spica-venti); conditions: amount of applied herbicide 320 g/ha
Summary of the method: as §4

Italian ryegrass [24] = assay: Test Example 5: herbicidal effect by foliage application, plastic box (Table 20, symbol K); type: in vivo, Italian ryegrass (Lolium multiflorum); conditions: foliage application, 320 g/ha, three weeks after application
Summary of the method: as §2

chickweed [25] = assay: Test Example 4: herbicidal effect by soil treatment (Table 19, symbol P); type: in vivo, common chickweed (Stellaria media); conditions: amount of applied herbicide 320 g/ha
Summary of the method: as §4

COc1ccccc1-c1sc2ccc(F)cc2c1-c1c(O)c(C)nn(CC#N)c1=O [2-431]
herbicidal effect on E: rice flat sedge (rice flat sedge): 5 (Herbicidal rate of 90% or more (almost completely withered)) | P: chickweed, herbicidal effect grade (chickweed [1]): 5 (Herbicidal rate of 90% or more (almost completely withered)) | J: blackgrass, herbicidal effect grade (blackgrass [2]): 0 (Herbicidal rate of 5% or less (almost no effect)) | G: green foxtail, herbicidal effect grade (green foxtail [3]): 0 (Herbicidal rate of 5% or less (almost no effect)) | Herbicidal effect, C: oval-leafed pondweed (oval-leafed pondweed): 0 (Herbicidal rate of 5% or less (almost no effect)) | O: lambsquarters, herbicidal effect grade (lambsquarters [4]): 1 (Herbicidal rate of 5% or more and less than 20%) | herbicidal effect, H: barnyard grass (barnyard grass [5]): 0 (Herbicidal rate of 5% or less (almost no effect)) | herbicidal effect, F: southern crabgrass (southern crabgrass [6]): 0 (Herbicidal rate of 5% or less (almost no effect)) | herbicidal effect, O: lambsquarters (lambsquarters [7]): 1 (Herbicidal rate of 5% or more and less than 20%) | herbicidal effect, M: velvetleaf (velvetleaf [8]): 1 (Herbicidal rate of 5% or more and less than 20%) | Herbicidal effect, B: Japanese bulrush (Japanese bulrush): 0 (Herbicidal rate of 5% or less (almost no effect)) | Herbicidal effect, A: late watergrass (late watergrass): 2 (Herbicidal rate of 20% or more and less than 40%) | L: windgrass, herbicidal effect grade (windgrass [9]): 0 (Herbicidal rate of 5% or less (almost no effect)) | R: persian speedwell, herbicidal effect grade (persian speedwell [10]): 3 (Herbicidal rate of 40% or more and less than 70%) | herbicidal effect, J: blackgrass (blackgrass [11]): 0 (Herbicidal rate of 5% or less (almost no effect)) | M: velvetleaf, herbicidal effect grade (velvetleaf [12]): 2 (Herbicidal rate of 20% or more and less than 40%) | herbicidal effect on D: Chinese sprangletop (Chinese sprangletop): 3 (Herbicidal rate of 40% or more and less than 70%) | herbicidal effect on H: barnyard grass (barnyard grass [13]): 5 (Herbicidal rate of 90% or more (almost completely withered)) | N: redroot pigweed, herbicidal effect grade (redroot pigweed [14]): 3 (Herbicidal rate of 40% or more and less than 70%) | herbicidal effect, R: persian speedwell (persian speedwell [15]): 0 (Herbicidal rate of 5% or less (almost no effect)) | F: southern crabgrass, herbicidal effect grade (southern crabgrass [16]): 0 (Herbicidal rate of 5% or less (almost no effect)) | herbicidal effect, G: green foxtail (green foxtail [17]): 0 (Herbicidal rate of 5% or less (almost no effect)) | herbicidal effect, N: redroot pigweed (redroot pigweed [18]): 5 (Herbicidal rate of 90% or more (almost completely withered)) | herbicidal effect, K: Italian ryegrass (Italian ryegrass [19]): 0 (Herbicidal rate of 5% or less (almost no effect)) | I: wild oat, herbicidal effect grade (wild oat [20]): 0 (Herbicidal rate of 5% or less (almost no effect)) | herbicidal effect, I: wild oat (wild oat [21]): 0 (Herbicidal rate of 5% or less (almost no effect)) | H: barnyard grass, herbicidal effect grade (barnyard grass [22]): 0 (Herbicidal rate of 5% or less (almost no effect)) | herbicidal effect, Q: false cleavers (false cleavers): 0 (Herbicidal rate of 5% or less (almost no effect)) | herbicidal effect, L: windgrass (windgrass [23]): 0 (Herbicidal rate of 5% or less (almost no effect)) | K: Italian ryegrass, herbicidal effect grade (Italian ryegrass [24]): 0 (Herbicidal rate of 5% or less (almost no effect))

Cc1nn(C)c(=O)c(-c2c(-c3ccc(OCC(F)(F)F)cc3)oc3ccc(F)cc23)c1O [9-035]
P: chickweed, herbicidal effect grade (chickweed [25]): 5 (Herbicidal rate of 90% or more (almost completely withered)) | Herbicidal effect on E (rice flat sedge), foliage application (rice flat sedge): 5 (Herbicidal rate of 90% or more (almost completely withered)) | herbicidal effect on blackgrass (J) (blackgrass [2]): 5 (Herbicidal rate of 90% or more (almost completely withered)) | herbicidal effect on green foxtail (G) (green foxtail [3]): 5 (Herbicidal rate of 90% or more (almost completely withered)) | Herbicidal effect, C: oval-leafed pondweed (oval-leafed pondweed): 0 (Herbicidal rate of 5% or less (almost no effect)) | herbicidal effect on lambsquarters (O) (lambsquarters [4]): 4 (Herbicidal rate of 70% or more and less than 90%) | H: barnyard grass, herbicidal effect grade (barnyard grass [5]): 5 (Herbicidal rate of 90% or more (almost completely withered)) | F: southern crabgrass, herbicidal effect grade (southern crabgrass [6]): 5 (Herbicidal rate of 90% or more (almost completely withered)) | O: lambsquarters, herbicidal effect grade (lambsquarters [7]): 5 (Herbicidal rate of 90% or more (almost completely withered)) | M: velvetleaf, herbicidal effect grade (velvetleaf [8]): 4 (Herbicidal rate of 70% or more and less than 90%) | Herbicidal effect, B: Japanese bulrush (Japanese bulrush): 0 (Herbicidal rate of 5% or less (almost no effect)) | Herbicidal effect, A: late watergrass (late watergrass): 2 (Herbicidal rate of 20% or more and less than 40%) | herbicidal effect on windgrass (L) (windgrass [9]): 5 (Herbicidal rate of 90% or more (almost completely withered)) | herbicidal effect on persian speedwell (R) (persian speedwell [10]): 5 (Herbicidal rate of 90% or more (almost completely withered)) | J: blackgrass, herbicidal effect grade (blackgrass [11]): 5 (Herbicidal rate of 90% or more (almost completely withered)) | herbicidal effect on velvetleaf (M) (velvetleaf [12]): 5 (Herbicidal rate of 90% or more (almost completely withered)) | Herbicidal effect on D (Chinese sprangletop), foliage application (Chinese sprangletop): 3 (Herbicidal rate of 40% or more and less than 70%) | Herbicidal effect on H (barnyard grass), foliage application (barnyard grass [13]): 5 (Herbicidal rate of 90% or more (almost completely withered)) | R: persian speedwell, herbicidal effect grade (persian speedwell [15]): 5 (Herbicidal rate of 90% or more (almost completely withered)) | herbicidal effect on southern crabgrass (F) (southern crabgrass [16]): 5 (Herbicidal rate of 90% or more (almost completely withered)) | G: green foxtail, herbicidal effect grade (green foxtail [17]): 5 (Herbicidal rate of 90% or more (almost completely withered)) | N: redroot pigweed, herbicidal effect grade (redroot pigweed [18]): 5 (Herbicidal rate of 90% or more (almost completely withered)) | K: Italian ryegrass, herbicidal effect grade (Italian ryegrass [19]): 5 (Herbicidal rate of 90% or more (almost completely withered)) | herbicidal effect on wild oat (I) (wild oat [20]): 5 (Herbicidal rate of 90% or more (almost completely withered)) | I: wild oat, herbicidal effect grade (wild oat [21]): 2 (Herbicidal rate of 20% or more and less than 40%) | herbicidal effect on barnyard grass (H) (barnyard grass [22]): 5 (Herbicidal rate of 90% or more (almost completely withered)) | Q: false cleavers, herbicidal effect grade (false cleavers): 3 (Herbicidal rate of 40% or more and less than 70%) | L: windgrass, herbicidal effect grade (windgrass [23]): 5 (Herbicidal rate of 90% or more (almost completely withered)) | herbicidal effect on Italian ryegrass (K) (Italian ryegrass [24]): 5 (Herbicidal rate of 90% or more (almost completely withered))
